Test results as given in patent publication US10344060B2 (priority 2013, dated 2019).

Assays:
hNav1.5 = hNav1.5 (Homo sapiens, UniProt Q14524); assay: cell-based; conditions: ratio of PX tonic IC50 values
hNav1.4 = hNav1.4 (Homo sapiens, UniProt P35499); assay: cell-based; assay type: cell-based; conditions: ratio of PX tonic IC50 values
Chain of hNav1.4 (P35499 whole entry): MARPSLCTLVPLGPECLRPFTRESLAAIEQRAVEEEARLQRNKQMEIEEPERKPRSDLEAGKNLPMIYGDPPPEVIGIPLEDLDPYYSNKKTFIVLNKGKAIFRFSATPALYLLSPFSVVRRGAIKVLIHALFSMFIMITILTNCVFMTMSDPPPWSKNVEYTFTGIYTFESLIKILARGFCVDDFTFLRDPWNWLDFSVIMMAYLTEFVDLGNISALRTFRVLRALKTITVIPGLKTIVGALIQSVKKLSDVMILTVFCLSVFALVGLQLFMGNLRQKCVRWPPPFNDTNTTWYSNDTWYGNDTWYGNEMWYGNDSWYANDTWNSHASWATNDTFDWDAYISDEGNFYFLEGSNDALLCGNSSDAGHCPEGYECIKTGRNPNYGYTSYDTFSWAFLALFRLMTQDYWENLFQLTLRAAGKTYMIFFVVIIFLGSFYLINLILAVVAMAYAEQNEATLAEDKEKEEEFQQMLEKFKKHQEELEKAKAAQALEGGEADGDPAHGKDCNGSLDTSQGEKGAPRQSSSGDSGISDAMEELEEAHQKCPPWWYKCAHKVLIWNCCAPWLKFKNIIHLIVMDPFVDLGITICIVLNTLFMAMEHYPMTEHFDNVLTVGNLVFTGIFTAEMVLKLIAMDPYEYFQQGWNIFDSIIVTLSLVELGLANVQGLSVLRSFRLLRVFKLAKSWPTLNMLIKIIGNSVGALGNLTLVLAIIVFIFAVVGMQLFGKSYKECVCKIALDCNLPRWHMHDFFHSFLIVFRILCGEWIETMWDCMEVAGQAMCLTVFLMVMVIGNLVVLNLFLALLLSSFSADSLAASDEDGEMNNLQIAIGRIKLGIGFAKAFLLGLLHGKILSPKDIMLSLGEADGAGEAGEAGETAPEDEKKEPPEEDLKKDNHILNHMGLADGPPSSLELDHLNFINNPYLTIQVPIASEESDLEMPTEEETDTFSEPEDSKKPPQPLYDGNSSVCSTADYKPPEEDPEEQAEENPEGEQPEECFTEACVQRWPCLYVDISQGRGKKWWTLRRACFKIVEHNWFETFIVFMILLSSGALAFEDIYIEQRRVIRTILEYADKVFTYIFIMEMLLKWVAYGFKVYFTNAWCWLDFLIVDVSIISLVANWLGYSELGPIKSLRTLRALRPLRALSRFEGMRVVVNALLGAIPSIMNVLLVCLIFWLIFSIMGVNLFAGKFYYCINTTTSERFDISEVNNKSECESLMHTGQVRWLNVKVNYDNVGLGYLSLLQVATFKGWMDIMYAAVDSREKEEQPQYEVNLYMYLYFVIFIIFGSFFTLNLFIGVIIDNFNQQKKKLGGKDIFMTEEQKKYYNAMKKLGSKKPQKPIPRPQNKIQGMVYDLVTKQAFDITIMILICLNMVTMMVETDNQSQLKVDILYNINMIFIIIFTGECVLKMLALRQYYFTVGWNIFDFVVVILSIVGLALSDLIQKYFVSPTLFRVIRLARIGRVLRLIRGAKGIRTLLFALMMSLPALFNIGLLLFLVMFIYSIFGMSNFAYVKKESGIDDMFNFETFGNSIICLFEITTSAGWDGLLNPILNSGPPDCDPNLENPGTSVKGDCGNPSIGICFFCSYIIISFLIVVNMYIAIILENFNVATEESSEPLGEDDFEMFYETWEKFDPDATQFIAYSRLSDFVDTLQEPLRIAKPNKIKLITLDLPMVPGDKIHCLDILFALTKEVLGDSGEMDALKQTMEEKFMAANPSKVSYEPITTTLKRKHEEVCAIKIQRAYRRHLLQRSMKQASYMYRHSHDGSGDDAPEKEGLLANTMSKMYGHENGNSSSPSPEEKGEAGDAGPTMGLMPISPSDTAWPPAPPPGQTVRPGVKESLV

Chain of hNav1.5 (Q14524 whole entry): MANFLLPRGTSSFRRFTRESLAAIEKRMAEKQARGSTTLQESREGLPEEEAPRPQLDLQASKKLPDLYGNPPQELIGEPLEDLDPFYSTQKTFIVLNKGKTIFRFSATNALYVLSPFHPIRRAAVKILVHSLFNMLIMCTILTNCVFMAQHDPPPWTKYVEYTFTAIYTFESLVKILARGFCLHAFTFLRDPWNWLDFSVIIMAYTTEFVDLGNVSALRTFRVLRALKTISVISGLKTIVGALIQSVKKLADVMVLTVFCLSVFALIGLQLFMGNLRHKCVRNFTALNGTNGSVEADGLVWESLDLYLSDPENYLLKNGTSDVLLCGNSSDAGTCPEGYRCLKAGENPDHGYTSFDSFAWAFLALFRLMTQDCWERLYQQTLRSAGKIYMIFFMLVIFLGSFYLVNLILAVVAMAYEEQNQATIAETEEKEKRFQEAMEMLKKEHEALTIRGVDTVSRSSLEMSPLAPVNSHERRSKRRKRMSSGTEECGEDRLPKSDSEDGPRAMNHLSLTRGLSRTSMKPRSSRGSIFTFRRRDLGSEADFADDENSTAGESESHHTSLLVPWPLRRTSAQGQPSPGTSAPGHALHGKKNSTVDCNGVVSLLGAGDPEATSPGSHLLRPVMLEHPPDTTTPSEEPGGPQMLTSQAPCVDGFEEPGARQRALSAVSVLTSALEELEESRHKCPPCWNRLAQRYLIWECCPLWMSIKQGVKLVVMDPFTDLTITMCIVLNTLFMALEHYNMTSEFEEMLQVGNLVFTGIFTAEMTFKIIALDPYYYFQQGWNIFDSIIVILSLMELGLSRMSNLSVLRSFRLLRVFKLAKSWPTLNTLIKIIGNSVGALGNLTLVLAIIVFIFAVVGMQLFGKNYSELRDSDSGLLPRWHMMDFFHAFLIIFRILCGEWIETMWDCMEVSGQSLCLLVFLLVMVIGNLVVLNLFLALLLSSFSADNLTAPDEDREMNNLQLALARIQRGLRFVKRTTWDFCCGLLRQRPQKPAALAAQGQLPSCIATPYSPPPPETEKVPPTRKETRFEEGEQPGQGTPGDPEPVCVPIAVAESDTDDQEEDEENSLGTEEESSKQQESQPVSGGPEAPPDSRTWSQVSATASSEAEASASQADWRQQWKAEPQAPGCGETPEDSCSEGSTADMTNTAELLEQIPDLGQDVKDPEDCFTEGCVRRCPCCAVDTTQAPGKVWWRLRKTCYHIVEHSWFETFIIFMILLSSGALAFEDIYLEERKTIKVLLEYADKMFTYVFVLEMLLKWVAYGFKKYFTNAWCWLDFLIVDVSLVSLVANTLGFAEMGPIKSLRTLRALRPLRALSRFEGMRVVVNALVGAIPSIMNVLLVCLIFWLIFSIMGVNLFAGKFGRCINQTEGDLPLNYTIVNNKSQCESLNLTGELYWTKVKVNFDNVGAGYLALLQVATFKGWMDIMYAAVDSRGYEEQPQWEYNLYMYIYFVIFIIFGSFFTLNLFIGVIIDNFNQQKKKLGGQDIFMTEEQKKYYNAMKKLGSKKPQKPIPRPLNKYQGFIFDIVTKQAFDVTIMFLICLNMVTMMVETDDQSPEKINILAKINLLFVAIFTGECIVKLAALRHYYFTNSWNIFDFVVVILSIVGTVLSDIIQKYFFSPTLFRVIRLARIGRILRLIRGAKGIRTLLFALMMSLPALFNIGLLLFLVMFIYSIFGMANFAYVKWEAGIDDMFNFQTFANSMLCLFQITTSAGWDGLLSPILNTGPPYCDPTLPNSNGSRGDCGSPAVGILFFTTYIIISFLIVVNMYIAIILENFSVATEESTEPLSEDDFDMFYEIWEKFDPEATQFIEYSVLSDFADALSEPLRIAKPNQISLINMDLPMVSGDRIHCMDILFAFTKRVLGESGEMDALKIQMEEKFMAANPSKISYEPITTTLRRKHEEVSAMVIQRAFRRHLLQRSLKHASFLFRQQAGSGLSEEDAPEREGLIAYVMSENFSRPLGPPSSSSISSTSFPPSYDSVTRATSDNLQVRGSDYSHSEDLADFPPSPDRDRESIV

| Structure (SMILES) | Nav1.5/Nav1.7 (hNav1.5; Table 13) | Nav1.4/Nav1.7 (hNav1.4; Table 13) | Nav1.5/Nav1.7 (hNav1.5; Table 12) | Nav1.4/Nav1.7 (hNav1.4; Table 12) |
| --- | --- | --- | --- | --- |
| CCCC[C@@H]1NC(=O)[C@H](Cc2c[nH]c3ccccc23)NC(=O)[C@H](CCCCN)NC(=O)[C@H](CCC(N)=O)NC(=O)[C@@H](NC(=O)[C@H](Cc2ccc(O)cc2)NC(=O)[C@@H](N)Cc2cn(CCOCCOCCOCCOCCOCCOCCOCCOCCOCCOCCOCCNC(=O)CSCc3ccccc3)nn2)CSSC[C@@H]2NC(=O)[C@@H]3CSSC[C@@H](C(=O)N[C@@H](CCCNC(=N)N)C(=O)N[C@@H](CCCCN)C(=O)N[C@H](C(=O)N[C@H](C(N)=O)[C@@H](C)CC)[C@@H](C)CC)NC(=O)[C@H](Cc4c[nH]c5ccccc45)NC(=O)[C@H](CC(C)C)NC(=O)[C@H](CCCCN)NC(=O)[C@H](CSSC[C@H](NC(=O)[C@H]([C@@H](C)O)NC(=O)[C@H](Cc4c[nH]c5ccccc45)NC1=O)C(=O)N[C@@H](CC(=O)O)C(=O)N[C@@H](CO)C(=O)N[C@@H](CCCCN)C(=O)N[C@@H](CCCNC(=N)N)C(=O)N[C@@H](C)C(=O)N3)NC(=O)[C@H](CCCNC(=N)N)NC(=O)[C@H](CC(C)C)NC(=O)CNC(=O)[C@H](CCC(=O)O)NC2=O [compound 427] | 1416 | 9 | – | – |
| C#CC[C@H](N)C(=O)NCCCC[C@@H]1NC(=O)[C@H](CCCNC(=N)N)NC(=O)[C@H](CCCCN)NC(=O)[C@H](CO)NC(=O)[C@H](CC(=O)O)NC(=O)[C@@H]2CSSC[C@@H]3NC(=O)[C@H](CCCNC(=N)N)NC(=O)[C@H](CC(C)C)NC(=O)CNC(=O)[C@H](CCC(=O)O)NC(=O)[C@H](CSSC[C@H](NC(=O)[C@H](Cc4ccc(O)cc4)NC(=O)[C@@H](N)CC#N)C(=O)N[C@@H](CCC(N)=O)C(=O)N[C@@H](CCCCN)C(=O)N[C@@H](Cc4c[nH]c5ccccc45)C(=O)N[C@@H](CC(C)C)C(=O)N[C@@H](Cc4c[nH]c5ccccc45)C(=O)N[C@@H]([C@@H](C)O)C(=O)N2)NC(=O)[C@H](CSSC[C@@H](C(=O)N[C@@H](CCCNC(=N)N)C(=O)N[C@@H](CCCCN)C(=O)N[C@@H](CCC(=O)O)C(=O)N[C@H](C(N)=O)[C@@H](C)CC)NC(=O)[C@H](Cc2c[nH]c4ccccc24)NC(=O)[C@H](CC(C)C)NC(=O)[C@H](CCCCN)NC3=O)NC1=O [compound 449] | – | – | 1038 | 111 |
| CCCC[C@@H]1NC(=O)[C@H](Cc2c[nH]c3ccccc23)NC(=O)[C@H](CCCCN)NC(=O)[C@H](CCC(N)=O)NC(=O)[C@@H](NC(=O)[C@@H](N)CCN=[N+]=[N-])CSSC[C@@H]2NC(=O)[C@@H]3CSSC[C@@H](C(=O)N[C@@H](CCCNC(=N)N)C(=O)N[C@@H](CCCCN)C(=O)N[C@H](C(=O)N[C@@H](Cc4c[nH]c5ccccc45)C(N)=O)[C@@H](C)CC)NC(=O)[C@H](Cc4c[nH]c5ccccc45)NC(=O)[C@H](CC(C)C)NC(=O)[C@H](CCCCN)NC(=O)[C@H](CSSC[C@H](NC(=O)[C@H]([C@@H](C)O)NC(=O)[C@H](Cc4c[nH]c5ccccc45)NC1=O)C(=O)N[C@@H](CC(=O)O)C(=O)N[C@@H](CO)C(=O)N[C@@H](CCCCN)C(=O)N[C@@H](CCCNC(=N)N)C(=O)N[C@@H](C)C(=O)N3)NC(=O)[C@H](CCC(=O)O)NC(=O)[C@H](CC(C)C)NC(=O)CNC(=O)[C@H](CCC(=O)O)NC2=O [compound 309] | – | – | 634 | 239 |
| C#CC[C@@H]1NC(=O)[C@H](CC(=O)O)NC(=O)[C@@H]2CSSC[C@@H]3NC(=O)[C@H](CCC(=O)O)NC(=O)[C@H](CC(C)C)NC(=O)CNC(=O)[C@H](CCC(=O)O)NC(=O)[C@H](CSSC[C@H](NC(=O)[C@@H](N)Cc4ccc(O)cc4)C(=O)N[C@@H](CCC(N)=O)C(=O)N[C@@H](CCCCN)C(=O)N[C@@H](Cc4c[nH]c5ccccc45)C(=O)N[C@@H](CCCC)C(=O)N[C@@H](Cc4c[nH]c5ccccc45)C(=O)N[C@@H]([C@@H](C)O)C(=O)N2)NC(=O)[C@H](CSSC[C@@H](C(=O)N[C@@H](CCCNC(=N)N)C(=O)N[C@@H](CCCCN)C(=O)N[C@@H](Cc2ccc(O)cc2)C(=O)N[C@H](C(N)=O)[C@@H](C)CC)NC(=O)[C@H](Cc2c[nH]c4ccccc24)NC(=O)[C@H](CC(C)C)NC(=O)[C@H](CCCCN)NC3=O)NC(=O)[C@H](C)NC(=O)[C@H](CCCNC(=N)N)NC(=O)[C@H](CCCCN)NC1=O [compound 315] | – | – | 1914 | 643 |
| CCCC[C@@H]1NC(=O)[C@H](Cc2c[nH]c3ccccc23)NC(=O)[C@H](CCCCN)NC(=O)[C@H](CCC(N)=O)NC(=O)[C@@H](NC(=O)[C@@H](N)Cc2ccc(O)cc2)CSSC[C@@H]2NC(=O)[C@@H]3CSSC[C@@H](C(=O)N[C@@H](CCCNC(=N)N)C(=O)N[C@@H](CCCCN)C(=O)N[C@H](C(=O)N[C@@H](Cc4c[nH]c5ccccc45)C(N)=O)[C@@H](C)CC)NC(=O)[C@H](Cc4c[nH]c5ccccc45)NC(=O)[C@H](CC(C)C)NC(=O)[C@H](CCCCN)NC(=O)[C@H](CSSC[C@H](NC(=O)[C@H]([C@@H](C)O)NC(=O)[C@H](Cc4c[nH]c5ccccc45)NC1=O)C(=O)N[C@@H](CC(=O)O)C(=O)N[C@@H](CO)C(=O)N[C@@H](CCCCN)C(=O)N[C@@H](CCCNC(=N)N)C(=O)N[C@@H](C)C(=O)N3)NC(=O)[C@H](CCC(=O)O)NC(=O)[C@H](CC(C)C)NC(=O)CNC(=O)[C@H](CCCCN=[N+]=[N-])NC2=O [compound 307] | – | – | 83 | 40 |
| CCCC[C@@H]1NC(=O)[C@H](Cc2c[nH]c3ccccc23)NC(=O)[C@H](CCCCN)NC(=O)[C@H](CCC(N)=O)NC(=O)[C@@H](NC(=O)[C@@H](N)CCCCN=[N+]=[N-])CSSC[C@@H]2NC(=O)[C@@H]3CSSC[C@@H](C(=O)N[C@@H](CCCNC(=N)N)C(=O)N[C@@H](CCCCN)C(=O)N[C@H](C(=O)N[C@@H](Cc4c[nH]c5ccccc45)C(N)=O)[C@@H](C)CC)NC(=O)[C@H](Cc4c[nH]c5ccccc45)NC(=O)[C@H](CC(C)C)NC(=O)[C@H](CCCCN)NC(=O)[C@H](CSSC[C@H](NC(=O)[C@H]([C@@H](C)O)NC(=O)[C@H](Cc4c[nH]c5ccccc45)NC1=O)C(=O)N[C@@H](CC(=O)O)C(=O)N[C@@H](CO)C(=O)N[C@@H](CCCCN)C(=O)N[C@@H](CCCNC(=N)N)C(=O)N[C@@H](C)C(=O)N3)NC(=O)[C@H](CCC(=O)O)NC(=O)[C@H](CC(C)C)NC(=O)CNC(=O)[C@H](CCC(=O)O)NC2=O [compound 304] | – | – | 662 | 449 |
| C#CC[C@@H]1NC(=O)[C@H](CC(=O)O)NC(=O)[C@@H]2CSSC[C@@H]3NC(=O)[C@H](CCCNC(=N)N)NC(=O)[C@H](CC(C)C)NC(=O)CNC(=O)[C@H](CCC(=O)O)NC(=O)[C@H](CSSC[C@H](NC(=O)[C@@H](N)Cc4ccc(O)cc4)C(=O)N[C@@H](CCC(N)=O)C(=O)N[C@@H](CCCCN)C(=O)N[C@@H](Cc4c[nH]c5ccccc45)C(=O)N[C@@H](CCCC)C(=O)N[C@@H](Cc4c[nH]c5ccccc45)C(=O)N[C@@H]([C@@H](C)O)C(=O)N2)NC(=O)[C@H](CSSC[C@@H](C(=O)N[C@@H](CCCNC(=N)N)C(=O)N[C@@H](CCCCN)C(=O)N[C@@H](CCC(=O)O)C(=O)N[C@H](C(N)=O)[C@@H](C)CC)NC(=O)[C@H](Cc2c[nH]c4ccccc24)NC(=O)[C@H](CC(C)C)NC(=O)[C@H](CCCCN)NC3=O)NC(=O)[C@H](C)NC(=O)[C@H](CCCNC(=N)N)NC(=O)[C@H](CCCCN)NC1=O [compound 330] | – | – | 7841 | 291 |
